Key:
Assay type in all cases: in vivo
Plasmopara viticola = assay: Test D: grape downy mildew control on grape seedlings; conditions: for Test D disease control rating (100 = 100% disease control, 0 = no disease control): rate 250 ppm, relative to the controls
[1] = system: Puccinia recondita f. sp. tritici; assay: Test B: wheat leaf rust control on wheat seedlings; conditions: for Test B disease control rating (100 = 100% disease control, 0 = no disease control): rate 250 ppm, relative to the controls; for Test B disease control rating / pest or weed control at 250 ppm: 250 ppm, wheat seedlings, 100 = 100% disease control, 0 = no control; for pest or weed control at 250 ppm: Puccinia recondita, read-out: Test B disease control rating
Zymoseptoria tritici = assay: Test C: wheat leaf blotch control on wheat seedlings; conditions: for Test C disease control rating (100 = 100% disease control, 0 = no disease control): rate 250 ppm, relative to the controls; for Test C disease control rating / pest or weed control at 250 ppm: 250 ppm, wheat seedlings, 100 = 100% disease control, 0 = no control; for pest or weed control at 250 ppm: Zymoseptoria tritici, read-out: Test C disease control rating
Botrytis cinerea = assay: Test E: tomato Botrytis control on tomato seedlings; conditions: for Test E disease control rating (100 = 100% disease control, 0 = no disease control): rate 250 ppm, relative to the controls; for Test E disease control rating / pest or weed control at 250 ppm: 250 ppm, 100 = 100% disease control, 0 = no control; for pest or weed control at 250 ppm: Botrytis cinerea, read-out: Test E disease control rating
[2] = system: Erysiphe graminis f. sp. tritici; assay: Test G: wheat powdery mildew control on wheat seedlings; conditions: for Test G disease control rating (100 = 100% disease control, 0 = no disease control): rate 250 ppm, relative to the controls; for Test G disease control rating / pest or weed control at 250 ppm: 250 ppm, 100 = 100% disease control, 0 = no control; for pest or weed control at 250 ppm: Blumeria graminis, read-out: Test G disease control rating
Phakopsora pachyrhizi = assay: Test A: Asian soybean rust control on soybean seedlings; conditions: for Test A disease control rating (100 = 100% disease control, 0 = no disease control): rate 250 ppm, relative to the controls; for Test A disease control rating / pest or weed control at 250 ppm: 250 ppm, soybean seedlings, 100 = 100% disease control, 0 = no control; for pest or weed control at 250 ppm: Phakopsora pachyrhizi, read-out: Test A disease control rating
Phytophthora infestans = assay: whole plant or invertebrate; conditions: tomato seedlings; for Test F disease control rating (100 = 100% disease control, 0 = no disease control): rate 250 ppm, relative to the controls; for Test F disease control rating: 250 ppm; for Test F disease control rating / pest or weed control at 250 ppm: 100 = 100% disease control, 0 = no control; for pest or weed control at 250 ppm: Phytophthora infestans, in Solanum lycopersicum, read-out: Test F disease control rating, 250 ppm
[3] = 250 ppm, 100 = 100% disease control, 0 = no control

Structure (SMILES)	Test D disease control rating (Plasmopara viticola; [3]) [%]	Test B disease control rating [1] [%]	Test C disease control rating (Zymoseptoria tritici) [%]	Test E disease control rating (Botrytis cinerea) [%]	Test G disease control rating [2] [%]	Test A disease control rating (Phakopsora pachyrhizi) [%]	Test F disease control rating (Phytophthora infestans) [%]	other results
CCC(OC(=O)[C@H](C)NC(=O)c1nccc(OC)c1OCOC(C)=O)C1CCCCC1 (single isomer, unassigned) [Compound 190]								Test D disease control rating (100 = 100% disease control, 0 = no disease control) (Plasmopara viticola): 43%; Test B disease control rating (100 = 100% disease control, 0 = no disease control) [1]: 74%; Test C disease control rating (100 = 100% disease control, 0 = no disease control) (Zymoseptoria tritici): 46%; Test E disease control rating (100 = 100% disease control, 0 = no disease control) (Botrytis cinerea): 0%; Test G disease control rating (100 = 100% disease control, 0 = no disease control) [2]: 0%; Test A disease control rating (100 = 100% disease control, 0 = no disease control) (Phakopsora pachyrhizi): 100%; Test F disease control rating (100 = 100% disease control, 0 = no disease control) (Phytophthora infestans): 0%
COc1ccnc2c(=O)n([C@@H](C)C(=O)OC(C)c3ccc(C4CCCCC4)cc3)c(=O)oc12 (single isomer, unassigned) [Compound 194]								Test D disease control rating (100 = 100% disease control, 0 = no disease control) (Plasmopara viticola): 18%; Test B disease control rating (100 = 100% disease control, 0 = no disease control) [1]: 68%; Test C disease control rating (100 = 100% disease control, 0 = no disease control) (Zymoseptoria tritici): 37%; Test E disease control rating (100 = 100% disease control, 0 = no disease control) (Botrytis cinerea): 0%; Test G disease control rating (100 = 100% disease control, 0 = no disease control) [2]: 0%; Test A disease control rating (100 = 100% disease control, 0 = no disease control) (Phakopsora pachyrhizi): 87%; Test F disease control rating (100 = 100% disease control, 0 = no disease control) (Phytophthora infestans): 0%
COc1ccnc2c(=O)n([C@@H](C)C(=O)OC(C)c3ccc(C4CCCCC4)cc3)c(=O)oc12 (single isomer, unassigned) [Compound 195]								Test D disease control rating (100 = 100% disease control, 0 = no disease control) (Plasmopara viticola): 17%; Test B disease control rating (100 = 100% disease control, 0 = no disease control) [1]: 99%; Test C disease control rating (100 = 100% disease control, 0 = no disease control) (Zymoseptoria tritici): 83%; Test E disease control rating (100 = 100% disease control, 0 = no disease control) (Botrytis cinerea): 0%; Test G disease control rating (100 = 100% disease control, 0 = no disease control) [2]: 0%; Test A disease control rating (100 = 100% disease control, 0 = no disease control) (Phakopsora pachyrhizi): 100%; Test F disease control rating (100 = 100% disease control, 0 = no disease control) (Phytophthora infestans): 0%
COc1cccc(C(=O)NC(C)C(=O)OC(C)c2ccccc2Cc2ccccc2)c1O (stereo not drawn) [Compound 5]	73	0	0	0	0	0	39	
COc1cccc(C(=O)NC(C)C(=O)OC(C)c2ccccc2Cc2ccccc2)c1O (stereo not drawn) [Compound 6]	28						0	pest or weed control at 250 ppm [1]: 0%; pest or weed control at 250 ppm (Zymoseptoria tritici): 0%; pest or weed control at 250 ppm (Botrytis cinerea): 0%; pest or weed control at 250 ppm [2]: 0%; pest or weed control at 250 ppm (Phakopsora pachyrhizi): 0%
COc1ccnc(C(=O)N[C@@H](C)C(=O)OC(C2CCCCC2)C2CCCCC2)c1O [Compound 45]	43	0	39	0	0	100	9	
COc1ccnc(C(=O)N[C@@H](C)C(=O)OC(C2CCCCC2)C2CCCCC2)c1OC(C)=O [Compound 46]	22	68	68	0	91	100	0	
COc1ccnc(C(=O)N[C@@H](C)C(=O)OC(C)c2ccc(-n3ccc(C(F)(F)F)n3)cc2Cc2ccccc2)c1O (stereo partly drawn) [Compound 93]	0	74	72	0	0	99	0	
COc1ccnc(C(=O)N[C@@H](C)C(=O)OC(C)c2ccc(-n3ccc(C(F)(F)F)n3)cc2Cc2ccccc2)c1OC(C)=O (stereo partly drawn) [Compound 94]	10	92	82	0	0	38	0	
COc1ccnc(C(=O)N[C@@H](C)C(=O)O[C@@H](C)c2ccc(C3CCCCC3)cc2)c1OC(C)=O [Compound 95, N-[[3-(acetyloxy)-4-methoxy-2-pyridinyl]carbonyl]-L-alanine (1S)-1-(4-cyclohexylphenyl)ethyl ester]								pest or weed control at 250 ppm (Plasmopara viticola; Plasmopara viticola, 250 ppm, 100 = 100% disease control, 0 = no control, read-out: Test D disease control rating): 1%; pest or weed control at 250 ppm [1]: 100%; pest or weed control at 250 ppm (Zymoseptoria tritici): 100%; pest or weed control at 250 ppm (Botrytis cinerea): 0%; pest or weed control at 250 ppm [2]: 0%; pest or weed control at 250 ppm (Phakopsora pachyrhizi): 100%; pest or weed control at 250 ppm (Phytophthora infestans): 0%
COc1ccnc(C(=O)NC(C)C(=O)OC(C)c2cccc3ccccc23)c1O (stereo not drawn) [Compound 113]	94	0	42					pest or weed control at 250 ppm (Botrytis cinerea): 0%; pest or weed control at 250 ppm [2]: 0%; pest or weed control at 250 ppm (Phakopsora pachyrhizi): 90%; pest or weed control at 250 ppm (Phytophthora infestans): 0%
COc1ccnc(C(=O)NC(C)C(=O)OC(C)c2cccc3ccccc23)c1O (stereo not drawn) [Compound 114]	63	100	77	0	0	100	0	
COc1ccnc(C(=O)N[C@@H](C)C(=O)OC(C)c2ccc(C(C)C)cc2)c1OC(C)=O (stereo partly drawn) [Compound 117]	71	100	94	0	0	100	0	
COc1ccnc(C(=O)N[C@@H](C)C(=O)OC(C)c2ccc(C(C)C)cc2)c1O (stereo partly drawn) [Compound 118]	85	99	86	0	0	100	0	
COc1ccnc(C(=O)N[C@@H](C)C(=O)OC(c2ccc(C3CCCCC3)cc2)C(F)(F)F)c1OC(C)=O (stereo partly drawn) [Compound 119]	27	99	88	0	48	100	0	
COc1ccnc(C(=O)N[C@@H](C)C(=O)OC(c2ccc(C3CCCCC3)cc2)C(F)(F)F)c1O (stereo partly drawn) [Compound 120]	24	94	95	0	0	99	0	
COc1ccnc(C(=O)N[C@@H](C)C(=O)OC(C)c2ccc(C(C)(C)C)cc2)c1OC(C)=O (stereo partly drawn) [Compound 121]	50	100	99	9	0	100	0	
COc1ccnc(C(=O)N[C@@H](C)C(=O)OC(C)c2ccc(C(C)(C)C)cc2)c1O (stereo partly drawn) [Compound 123]	57	100	84	0	0	100	24	
COc1ccnc(C(=O)N[C@@H](C)C(=O)OC(C)c2ccc(C3CCCCC3)cc2)c1OC(=O)c1ccccc1 (stereo partly drawn) [Compound 136]	4	90	0	0	0	60	0	
COc1ccnc(C(=O)N[C@@H](C)C(=O)OC(C)c2cccc(OC3CCC(C)(C)CC3)c2)c1OC(C)=O (stereo partly drawn) [Compound 137]	11	100	92	0	43	100	0	
COc1ccnc(C(=O)N[C@@H](C)C(=O)OC(C)c2cccc(OC3CCC(C)(C)CC3)c2)c1O (stereo partly drawn) [Compound 138]	18	74	63	0	0	95	0	
